Values quoted from earlier work in patent publication US9889132B2, “Pharmaceutical compositions for the treatment of psoriasis” (Special Product's Line S.p.A., priority 2014, dated 2018).

In the case of `COc1cc(Nc2nc(C)cc(C)n2)cc(OC)c1OC` [4,6-dimethyl-N-(3,4,5-trimethoxyphenyl)pyrimidin-2-amine], the LD50 i.p. (mouse; i.p.) is given as 780 mg/kg, the LD50 per os (mouse; per os) is given as 4110 mg/kg and the antimitotic action (mammal cells) is given as “considerable antimitotic action”.
